Test results published in patent US20110184178A1, “POLYMORPHS OF 5-(3-(ETHYLSULFONYL)PHENYL)-3,8-DIMETHYL-N-(1-METHYLPIPERIDIN-4-YL)-9H-PYRIDO[2,3-B]INDOLE-7-CARBOXAMIDE AND METHODS OF USE THEREFOR” (Takeda Pharmaceutical Company Limited, priority 2008, published 2011).
Read-outs that look alike come from different tables or passages of the source.

Tests used:
Format in all cases: physicochemical
[1] = Humidity chamber study of Form A (XRPD, Karl Fischer); details: ambient temperature and 0% RH for one week
Source text: A sample of Form A was exposed to ambient temperature and 0% RH for one week.

[2] = Physical characterization of the polymorphs and salt (XRPD, DSC, TGA, 1H-NMR, KF, moisture sorption): stability assessment; details: solid form
Procedure: Described herein are Form A, Form B, Form C, Form D, Form E, Form F and Form G of Compound I. Various tests were performed in order to physically characterize the polymorphs of Compound I, including X-ray powder diffraction (XRPD), differential scanning calorimetry (DSC), thermogravimetric analysis (TGA), solution proton nuclear magnetic resonance (^1H-NMR), and moisture sorption and desorption analysis (M S/Des). Detailed experimental conditions for each of the analytical techniques are described in the Examples section. […] A summary of these experiments and the results are presented below and in Table 12.

[3] = DSC heat-cool experiments with isothermal holds to isolate high-melt forms
Procedure: Differential scanning calorimetry (DSC) analyses were carried out on samples weighed in an aluminum pan, covered with a pierced lid, and then crimped. Analysis conditions were 30° C. to 300-350° C. ramped at 10° C./min. Samples were subjected to heat-cool-heat experiments to determine if a unique form or interconversion could be observed. Compound I was prepared by thoroughly mixing Form A lots with stirring by spatula and tumbling the powders for several minutes in a scintillation vial. Experiments were setup as described in Tables 17 and 18 with isothermal holds for five minutes at temperatures slightly below/above the observed transitions to encourage conversion/ripening. Similarly, controlled cooling profiles (−5° C./min) were used to help promote crystal growth as opposed to quench cooling which may result in amorphous or kinetically favored forms instead of the stable form.

[4] = Slurry experiments (form by XRPD after slurrying in a solvent); details: Form A in dioxane slurry
Procedure: 50 to 60 mg of Form A of Compound I was weighed out into 2 dram amber vials and the material was slurried in 2 mL of a solvent. The slurry experiments were carried out at either ambient temperature or at 40° C. Samples were obtained from slurries after one day, one week, and two weeks. Tables 15 and 16 detail the results of the slurry experiments.

[5] = Moisture-sorption analysis (gravimetric adsorption/desorption, 25° C.)
Procedure: Further, the material gained enough water to form the dihydrate in approximately 45 minutes at 30% RH during adsorption and lost enough water to form the anhydrate at 15% RH during desorption in less than 60 minutes. […] The sample was further allowed to equilibrate at ambient laboratory conditions overnight and reanalyzed by XRPD. […] The moisture sorption experiment of Form C of Compound I provides a curve similar to the Form A curve (FIG. 11). […] Further, the material gained enough water to form the dihydrate in less than 60 minutes at 30% RH during adsorption and lost enough water to form the anhydrate at 15% RH during desorption in approximately 80 minutes. […] Moisture-sorption experiments were carried out on all samples by first drying the sample at 0% RH and 25° C. until an equilibrium weight was reached or for a maximum of four hours. The sample was then subjected to an isothermal (25° C.) adsorption scan from 10 to 90% RH in steps of 10%. Samples were then allowed to equilibrate to an asymptotic weight at each point for a maximum of four hours. Following adsorption, a desorption scan from 85 to 0% RH (at 25° C.) was run in steps of −10% again allowing a maximum of four hours for equilibration to an asymptotic weight. Samples were dried for one hour at 80° C. and the resulting solids analyzed by XRPD.

[6] = Solubility study of Form A in de-ionized water and 20 mM phosphate buffer at pH 3.2 (HPLC, XRPD of solids); details: for solubility at 1 week: ambient temperature, read-out: Solubility mg/mL (1 week); for solubility at 1 day: read-out: Solubility mg/mL (1 day)
Procedure: Solubility was determined for Form A of Compound I by suspending the material in de-ionized water and 20 mM phosphate buffer at pH 3.2 and ambient temperature. Approximately 40 mg of Form A of Compound I was charged to 2-dram amber vials equipped with magnetic stir bars, followed by the addition of DI water or phosphate buffer (2.0 mL) in one portion. The samples were allowed to equilibrate with stirring for 16 h, followed by centrifugation. An aliquot of the supernatant liquid was analyzed by HPLC, and the solids isolated by filtration and dried under vacuum at ambient temperature for analysis by XRPD. Samples were allowed to stir for an additional 6 days and concentration determined by HPLC.

[7] = 30-280° C. @ 10° C./min, hold 280° C. for 5 min, 280-30° C. @ -5° C./min
[8] = 30-290° C. @ 10° C./min, hold 290° C. for 5 min, 290-30° C. @ -5° C./min
[9] = solids isolated from DI water suspension
[10] = solids isolated from phosphate buffer suspension, pH 3.2

CCS(=O)(=O)c1cccc(-c2cc(C(=O)NC3CCN(C)CC3)c(C)c3[nH]c4ncc(C)cc4c23)c1 [Compound I Form A, 5-(3-(ethylsulfonyl)phenyl)-3,8-dimethyl-N-(1-methylpiperidin-4-yl)-9H-pyrido[2,3-b]indole-7-carboxamide]
Karl Fischer (KF) analysis results before and after the one week equilibration [1]: comparable | XRPD after one week in humidity chamber [1]: consistent with Form A | stability (based on the available characterization data) [2]: stable at ambient conditions | 1H NMR (degradation) [3, 7]: No degradation | XRPD [3, 7]: Form F | 1H NMR (degradation) [3, 8]: No degradation | XRPD [3, 8]: Form G | XRPD pattern of dioxane slurry [4]: mixture of Form A and Form D | XRPD analysis of the solid following the desorption scan [5]: consistent with Form C | time to lose enough water to form the anhydrate ([5]; at 15% RH during desorption): less than 60 minutes | time to gain enough water to form the dihydrate ([5]; at 30% RH during adsorption): approximately 45 minutes | hydration state in the moisture sorption experiment ([5]; during both adsorption and desorption, 25° C.): stable dihydrate above 20% RH | XRPD after equilibration at ambient laboratory conditions overnight ([5]; sample after desorption scan): re-converted to Form A | pH, 1 week ([6]; DI water suspension, pH (initial) 6.9): 7.2 | pH, 1 week ([6]; Phosphate buffer suspension, pH (initial) 3.2): 3.4 | solubility at 1 week ([6]; aqueous buffer, thermodynamic from solid, Phosphate buffer (20 mM), pH (initial) 3.2, pH 3.4 at 1 week): < 0.1 mg/mL | solubility at 1 day ([6]; de-ionized water, pH 6.9, thermodynamic from solid, DI water, pH (initial) 6.9, ambient temperature): < 0.1 mg/mL | solubility at 1 week ([6]; de-ionized water, thermodynamic from solid, DI water, pH (initial) 6.9, pH 7.2 at 1 week): < 0.1 mg/mL | solubility at 1 day ([6]; pH 3.2, aqueous buffer, thermodynamic from solid, Phosphate buffer (20 mM), pH (initial) 3.2, ambient temperature): < 0.1 mg/mL | XRPD (1 week) [6, 9]: Form A | XRPD (1 day) [6, 9]: Form A | XRPD (1 week) [6, 10]: Form A | XRPD (1 day) [6, 10]: Form A
